Test results as given in patent US20240226020A1 (AMGEN INC., priority 2021, published 2024).
Entries after “also recorded” stand apart in the source; their conditions may differ.

Columns and labels:
[1] = Compressibility (tablet solid fraction as a function of compaction pressure); type: physicochemical
Experimental: (§1) After compression, tablets were measured for their ejected weight, thickness and diameter. Tablets were then stored for minimally 48 hours to allow for complete viscoelastic relaxation. The recovered dimensions were measured prior to diametrical compression testing performed using the HB compaction simulator operating at a constant loading rate of 5 mm/min. The force required to cause diametrical failure was recorded and used to compute radial tensile strength values.
Compressibility: The ability of a powder bed to be reduced in volume due to the application of an applied stress gives an indication of powder compressibility. This behavior is described in terms of tablet solid fraction as a function of compaction pressure (see Table 38). Interpretation of the data considers the change in solid fraction between two pressure conditions. The increased difference in SF at a high pressure and a low pressure is indicative of increased compressibility of the blend. […] Therefore, a 3:1 plastic to brittle diluent ratio, e.g., a 3:1 Avicel PH102 to lactose ratio, is preferred.

[2] = test system: extracellular signal-regulated kinase (ERK); conditions: preclinical studies; cited from earlier work
[3] = Compactibility and tabletability (radial tensile strength, compression pressure); type: physicochemical
Experimental: as §1
Compactibility and Tabletability: The ability of a powder bed to cohere into or to form a compact gives an indication of powder compactibility. This behavior is described as a plot of tablet radial tensile strength (RTS) as a function of tablet solid fraction (SF) (FIG. 12A). For understanding fundamental material behavior, it is advantageous to compare materials at similar levels of solid fraction. […] The compactibility of all three placebo blends can be classified as “low” because each blend has been previously dry granulated. Tabletability is another relevant parameter which is useful in identifying the pressure needed to achieve a specific tablet hardness or tensile strength. This behavior is described as a plot of tablet radial tensile strength (RTS) as a function of compaction pressure (FIG. 12B).

[4] = Water dispersion study: pharmacokinetics of 8×120 mg tablets versus tablets dispersed in water; type: in vivo, healthy subjects; conditions: plasma; for AUC(0-inf): human, oral, 960 mg, Geometric mean sotorasib AUCinf
Experimental: Doses were administered orally on Days 1 and 4 during the mornings after an overnight fast of at least 10 hours. A total of 13 subjects entered the study (7 subjects receiving treatment in the sequences of Treatment A followed by Treatment B; and 6 subjects receiving treatment in the sequences of Treatment B followed by Treatment A). Data for all subjects was included in the pharmacokinetic (PK) and safety analyses. […] PK parameters including AUClast, AUCinf, and Cmax were estimated and compared between Treatment A and Treatment B. The natural log-transformed PK parameters were analyzed using a mixed model. The model included treat, period, and sequence as fixed effect and subject nested within a sequence as a random effect. […] Additionally, the pooled estimate (across all treatments) of the within-subject coefficient of variation was calculated, and residual plots were produced to assess the adequacy of the model(s) fitted.

[5] = Water dispersion study: safety and tolerability; type: in vivo; conditions: healthy subjects
Experimental: Doses were administered orally on Days 1 and 4 during the mornings after an overnight fast of at least 10 hours. A total of 13 subjects entered the study (7 subjects receiving treatment in the sequences of Treatment A followed by Treatment B; and 6 subjects receiving treatment in the sequences of Treatment B followed by Treatment A). Data for all subjects was included in the pharmacokinetic (PK) and safety analyses. […] All events resolved by the end of the study.

In the case of C=CC(=O)N1CCN(c2nc(=O)n(-c3c(C)ccnc3C(C)C)c3nc(-c4c(O)cccc4F)c(F)cc23)[C@@H](C)C1 (atropisomer, axis not shown; (M)) [Sotorasib, 6-fluoro-7-(2-fluoro-6-hydroxyphenyl)-(1M)-1-[4-methyl-2-(propan-2-yl)pyridin-3-yl]-4-[(2S)-2-methyl-4-(prop-2-enoyl)piperazin-1-yl]pyrido[2,3-d]pyrimidin-2(1H)-one], the “applied pressure required to produce a tablet with an out of die solid fraction of 0.85” value [1] is given as “approximately 145 MPa”, the “phosphorylation of extracellular signal-regulated kinase (ERK)” value [2] is given as “inhibited nearly all detectable phosphorylation” and the “Assessment of compressibility and compactibility” value [3] is given as “high levels of compressibility combined with very low levels of compactibility”. The “solid fraction at a theoretical strength value of 2 MPa” value [3] was 0.85, the “RTS (MPa) @ 0.85 SF” value ([3]; 0.85 SF) was 1.59 MPa and the “RTS (MPa) @ 150 MPa” value ([3]; 150 MPa) was 1.62 MPa. For the same compound, the “CP (MPa) @ RTS = 2 MPa” value ([3]; RTS = 2 MPa) was 149.00 MPa, the “SF @ RTS = 2 MPa” value ([3]; RTS = 2 MPa) was 0.85 and the radial tensile strength ([3]; compressed to a peak pressure of 150 MPa) was 1.62 MPa. The radial tensile strength ([3]; compressed to an out of die solid fraction of 0.85) was 1.59 MPa, the median sotorasib tmax ([4]; 8×120 mg tablets (Formulation #8) dispersed in water (Treatment B), single oral dose, fasted) was 1 h and the AUC(0-inf) ([4]; administered as tablets (Treatment A)) was 25300 ng·h/mL. For the same compound, the AUC(0-inf) ([4]; administered as water dispersion (Treatment B)) was 26400 ng·h/mL, the Safety and tolerability ([5]; single doses of 960 mg as tablets dispersed in water and as tablets) was “safe and well tolerated; also recorded: safe and well-tolerated” and the “Clinical laboratory evaluations, vital signs, 12-lead ECGs” value ([5]; single doses of 960 mg) was “no clinically significant findings”. For the same compound, the Serious adverse events ([5]; single doses of 960 mg) was “no serious adverse events” and the Treatment-emergent adverse events ([5]; single doses of 960 mg, all mild, related to sotorasib, resolved) was “Three treatment-emergent adverse events of constipation, nausea and vomiting”.
